# Laboratory results taken from ChEMBL document CHEMBL5674860, “Optimized Dual-Glo Assay to identify co-culture-induced drug vulnerabilities in 3D CRC models” (2024).
# Tests used:
# Type in all cases: functional, Homo sapiens
# Design in all cases: dose or concentration left out as unconfirmed
# Colon cancer organoid [1] = assay: Optimized Dual-Glo assay to identify co-culture induced drug vulnerabilities using donated chemical probes and chemogenomics kinase set in O06 CRC organoid and F06 CAF mono and co-culture. […] Cell viability is reported both mono and co-culture models.
# Colon cancer organoid [2] = assay: Optimized Dual-Glo assay to identify co-culture induced drug vulnerabilities using donated chemical probes and chemogenomics kinase set in O14 CRC organoid and F14 CAF mono and co-culture. […] Cell viability is reported both mono and co-culture models.
# Colon cancer organoid [3] = assay: Optimized Dual-Glo assay to identify co-culture induced drug vulnerabilities using donated chemical probes and chemogenomics kinase set in O20 CRC organoid and F20 CAF mono and co-culture. […] Cell viability is reported both mono and co-culture models.
# [4] = Culture type Co-Culture, Transduced with Lucferase2-P2A-EGFP lentivirus
# [5] = Culture type Co-Culture, Transduced with Renilla-dsRed lentivirus
# [6] = Culture type Mono-Culture, Transduced with Lucferase2-P2A-EGFP lentivirus
# [7] = Culture type Mono-Culture, Transduced with Renilla-dsRed lentivirus
Structure (SMILES),Cell Viability (Colon cancer organoid [1]; [4]),Cell Viability (Colon cancer organoid [1]; [5]),Cell Viability (Colon cancer organoid [1]; [6]),Cell Viability (Colon cancer organoid [1]; [7]),Cell Viability (Colon cancer organoid [2]; [4]),Cell Viability (Colon cancer organoid [2]; [5]),Cell Viability (Colon cancer organoid [2]; [6]),Cell Viability (Colon cancer organoid [2]; [7]),Cell Viability (Colon cancer organoid [3]; [4]),Cell Viability (Colon cancer organoid [3]; [5]),Cell Viability (Colon cancer organoid [3]; [6]),Cell Viability (Colon cancer organoid [3]; [7])
COc1cc(N2CCC(O)CC2)ccc1Nc1cc(Nc2ccccc2S(=O)(=O)C(C)C)c2cc[nH]c2n1,85.241%,81.2438%,122.712%,109.159%,73.6565%,103.778%,68.2856%,78.3072%,108.471%,84.332%,70.9146%,86.2422%
CCc1cccc(CC)c1NC(=O)c1nn(C)c2c1CCc1cnc(Nc3ccc(C(=O)NC4CCN(C)CC4)cc3OC(F)(F)F)nc1-2,8.756%,150.393%,5.577%,91.0019%,20.0347%,229.301%,20.3776%,93.7404%,94.4005%,107.437%,25.0865%,90.076%
COc1cc(C)c(Sc2cnc(NC(=O)c3ccc(CNC(C)C(C)(C)C)cc3)s2)cc1C(=O)N1CCN(C(C)=O)CC1 (configuration not stated),97.8632%,73.4932%,75.5351%,54.8582%,66.3781%,81.9892%,56.9877%,80.9779%,92.0383%,97.5626%,38.3034%,78.8109%
O=C(Nc1cccnc1)c1cc(-c2ccnc(F)c2)ccc1OCc1ccccc1,87.3368%,83.1264%,73.6273%,99.0368%,118.198%,103.257%,132.36%,106.667%,125.655%,104.766%,84.3573%,88.986%
CNc1nc(Nc2cnn([C@H]3CCN(C4COC4)C[C@@H]3F)c2Cl)ncc1C(F)(F)F,94.4056%,87.0484%,128.459%,108.44%,116.318%,104.728%,169.727%,102.216%,199.298%,86.9942%,108.189%,89.737%
CC(C)(O)CNc1ncc(-c2ccnc(Nc3ccnc(Cl)c3)n2)c(CC2CC2)n1,30.6205%,168.017%,58.1247%,187.59%,100.5%,183.934%,107.577%,192.643%,67.7034%,172.835%,40.8339%,186.893%
CCOc1cc(N2CCC(O)CC2)ccc1Nc1ncc2c(n1)N(C1CCCC1)CCC(=O)N2C,80.3618%,151.464%,49.5621%,184.932%,86.8191%,245.351%,52.078%,149.574%,51.9112%,144.517%,36.2832%,127.288%
CCC(=O)Nc1cccc(Oc2nc(Nc3ccc(N4CCN(C)CC4)cc3OC)ncc2Cl)c1,92.8013%,94.5997%,65.5336%,70.4946%,114.921%,101.654%,90.6079%,93.4216%,125.445%,105.023%,80.3355%,88.9581%
CC(C)S(=O)(=O)c1ccc2nccc(Nc3ccc4scnc4c3)c2c1,84.0973%,95.5761%,123.937%,111.512%,101.708%,94.4181%,92.6068%,100.536%,145.741%,98.2209%,115.329%,92.1603%
Cc1cnc(Nc2ccc(F)cc2Cl)nc1-c1c[nH]c(C(=O)N[C@H](CO)c2cccc(Cl)c2)c1,51.8597%,63.6391%,9.819%,57.8689%,10.9302%,34.4005%,7.352%,19.5504%,6.951%,113.857%,5.763%,41.0342%
CNC(=O)Nc1ccc(-c2nc(N3CC4CCC(C3)O4)c3cnn(C4CCC5(CC4)OCCO5)c3n2)cc1,4.885%,48.532%,5.396%,31.9288%,9.5061%,63.2179%,14.6121%,40.9027%,5.834%,97.6391%,5.978%,53.3135%
